Assay results taken from patent US6495538B2, “Zinc ionophores as therapeutic agents” (Zinc Therapeutics, Canada Inc., priority 1999, dated 2002).

Columns and labels:
[1] = tested on: cultured HUVEC, isolated cardiac myocytes, and cultured cerebellar neurons; experiment: Zinc ionophore screening with Fura-2 loaded cells; type: cell-based, human, rabbit, mouse; settings: for zinc ionophore activity: 1 μM zinc-complexed holo-ionophore, slope of Fura-2 fluorescence ratio 340/380 nm
Method: Human umbilical vein endothelial cells (HUVEC) were purchased from Clonetics (San Diego, Calif.) and passages 2-4 were used for these studies. Cells were cultured on flame-sterilized glass coverslips in Endothelial Basal Medium (Clonetics) supplemented with 10 ng/ml human recombinant epidermal growth factor, 1.0 ug/ml hydrocortisone, 50 ug/ml gentamicin, 50 ng/ml amphotetericin B, 12 ug/ml bovine brain extract and 2% v/v fetal bovine serum (all from Clonetics), in a humidified chamber at 37° C. and 5% CO2. To maintain cell populations, proliferating HUVEC were passaged at 80-90% confluency.
Cardiac myocytes were isolated from the ventricular septum of adult rabbit hearts, following collagenase digestion, in a manner similar to that described previously (Turan, B. et al., (1997) Am. J. Physiol. 272:H2095-H2106). The modification consisted of introducing low concentrations of CaCl2 during the perfusion with collagenase and the dispersion of the myocytes. Hearts were perfused for about 2 min by gravity under a hydrostatic pressure of 1 m, with a nominally Ca^2+-free solution containing (in mM): NaCl, 145; KCl, 5; MgSO4, 1.2; Na2HPO4, 1.8; HEPES, 5; glucose, 10; pH adjusted to 7.4 with NaOH. Forty ml of this perfusate were then supplemented with collagenase (1 mg/ml) and perfusion was continued with recirculation. […] The flow rate was then adjusted to 15 ml/min and 50 μM CaCl2 was added to the collagenase solution. Perfusion with this solution was continued for another 15 to 18 min, followed by a 2 min washout of the enzyme with fresh perfusate containing 100 μM CaCl2 and no collagenase. The hearts were then removed from the apparatus and the ventricular septum isolated and minced. Dissociation of the cells was obtained by gentle agitation of the minced tissue in 50 ml of the same perfusing solution. Following filtration through a 200 μm nylon mesh, the cells were allowed to settle and the supernatant was replaced with a solution containing 2 mM CaCl2. Cells were kept at 37° C. in this pre-oxygenated solution and were studied within 8 hours after isolation, cellular viability was ensured by regularly replacing the incubation solution.
Primary cultures of mouse cerebellar granule neurons were obtained from dissociated cerebella of postnatal day 8 or 9 mice according to the following protocol (Cregan et al., (1999) J. Neurosci. 19:7860-7869, incorporated herein by reference). Brains were removed and placed into separate dishes containing solution A (124 mM NaCl, 5.37 mM KCl, 1 mM NaH2 PO4 , 1.2 mM MgSO4 , 14.5 mM D-(1)-glucose, 25 mM HEPES, 3 mg/ml BSA, pH 7.4) in which the cerebella were dissected, meninges removed, and tissue sliced into small pieces. The tissue was briefly centrifuged and transferred to solution A containing 0.25 mg/ml trypsin, then incubated at 37° C. for 18 min. After the addition of 0.082 mg/ml trypsin inhibitor (Boehringer Mannheim, Indianapolis, IN) and 0.25 mg/ml DNase I (Boehringer Mannheim), the tissue was incubated at 25° C. for 2 min. After a brief centrifugation, the resulting pellet was gently titrated in solution A yielding suspension that was further incubated for 10 min at 25° C. in solution A containing 2.7 mM MgSO4 and 0.03 mM CaCl2. After a final centrifugation the pellet was resuspended in EMEM media (Sigma, St. Louis, Mo.) containing 10% dialyzed FBS (Sigma), 25 mM KCl, 2 mM glutamine (Life Technologies BRL, Gaithersburg, Md.), 25 mM glucose, and 0.1 mg/ml gentamycin (Sigma) and filtered through a cell strainer (size 70 μm; Falcon). Cells were plated on glass coverslips coated with poly-D-lysine (Sigma) in Nunc four-well dishes at a density of 1.5×10^6 cells per milliliter of medium. Cytosine-β-arabinoside (10 μM; Sigma) was added 24 hr after plating.
In order to ascertain that the transported ion was indeed Zn^2+, and not some other divalent cation contaminant, the test compounds were first complexed with zinc.

PTZ-induced seizures = experiment: Subcutaneous PTZ (pentylenetetrazole) test; type: in vivo, rat; settings: 62.5 nmol/kg i.p.
From the text: The ability of a test compound to inhibit PTZ-induced clonic and tonic convulsions is currently regarded as predictive of efficacy against “absence” seizures and/or myoclonic seizures (Suzdak, Jansen, 1995, Epilepsia, 36(6):612-626). The pharmacological profile of the PTZ test varies depending on the endpoint selected: PTZ can produce myoclonic jerks, repeated clonic seizures of forelimbs and hindlimbs with and without loss of righting reflex, and loss of righting reflex followed by tonic extension of the forelimbs and hind limbs. To have the full picture of the PTZ-induced seizures and of the effects of zinc ionophores, and to make the model more discriminative (White at al., supra) the behavioral reaction of each rat was monitored for a period of 2 hours which is much longer than the usual time period in conventional screening experiments.
PTZ (120 mg/kg) was administered subcutaneously to male Wistar rats (300-450 g). Zinc ionophores were injected i.p. in one bolus, 30 min before PTZ at a dose of 62.5 nmol/kg and a total volume of 0.25-0.4 ml.

PC12 cells = experiment: Differentiated PC12 cells, H2O2-induced apoptosis; type: cell-based, rat; settings: concentrations equivalent to those of zinc-pyrithione; not shown
From the text: Control cells were pretreated with the carrier DMSO alone.

[2] = tested on: Human umbilical vein endothelial cells (HUVEC)
Method: Human umbilical vein endothelial cells (HUVEC) were purchased from Clonetics (San Diego, Calif.) and used from passages 2-4. Cells were cultured on gelatin-coated culture dishes in Endothelial Basal Medium (Clonetics) supplemented with 10 ng/ml human recombinant epidermal growth factor, 1.0 ug/ml hydrocortisone, 50 ug/ml gentamicin, 50 ng/ml amphotetericin B, 12 ug/ml bovine brain extract and 2% v/v fetal bovine serum, in a humidified chamber at 37° C. and 5% CO2. To maintain cell populations, proliferating HUVEC were passaged at 80-90% confluency.
HUVEC were grown to confluency, and then given an additional 24 hours to achieve quiescence prior to experimental treatment. The following treatments were performed:
The cells were washed twice with 37° C. D-PBS and then irradiated in fresh media. Irradiated cells received a dose of 1000 Rads of gamma-irradiation from a ^137Cesium source (Atomic Energy of Canada). The cells were then incubated for 2 hours (cytosolic and nuclear protein extraction) or 8 hours (Hoechst staining and DNA electrophoresis).
Cells were grown on round, gelatin coated 12 mm glass coverslips, and following treatment, were fixed with 0.5 ml of 1% glutaraldehyde in PBS for 10 minutes at room temperature (RT). […] The nuclear morphology of the cells was then visualized under a Zeiss Axiophot fluorescence microscope.

Cc1c(C)c2c(c(C)c1O)CC[C@@](C)(CCC[C@H](C)CCC[C@H](C)CCCC(C)C)O2 [Vitamin E (alpha-tocopherol), alpha-tocopherol]
zinc ionophore activity [1]: Vitamin E (alpha-tocopherol) ✓

CC1=C(/C=C/C(C)=C/C=C/C(C)=C/CO)C(C)(C)CCC1 [Vitamin A (all-trans-retinol), all-trans-retinol]
zinc ionophore activity [1]: Vitamin A (all-trans-retinol) ✓

S=C(S)N1CCCC1 [Pyrrolidinedithiocarbamate]
zinc ionophore activity [1]: Pyrrolidinedithiocarbamate ✓✓

COc1ccc2c(c1)c(CC(=O)O)c(C)n2C(=O)c1ccc(Cl)cc1 [Indomethacin]
zinc ionophore activity [1]: Indomethacin ✓

Oc1cccc2cccnc12 [8-Hydroxyquinoline]
zinc ionophore activity [1]: 8-Hydroxyquinoline, ✓

Oc1c(I)cc(I)c2cccnc12.[Zn] [ZDIHQ, zinc 5,7-diiodo-8-hydroxyquinoline]
zinc ionophore activity [1]: 5,7-Diiodo-8-hydroxyaquinoline ✓✓ | ionophore activity compared between cell types ([1]; HUVEC, cardiac myocytes, cerebellar neurons): comparable in all three cell types tested | latency of clonus with loss of righting reflex (PTZ-induced seizures; M ± S.E.M.): 21.2 ± 2.7 min | latency of clonus without loss of righting reflex (PTZ-induced seizures; M ± S.E.M.): 15.6 ± 1.7 min | latency of tonic seizure (PTZ-induced seizures; M ± S.E.M.): 28.4 ± 4.1 min | increase of survival time (mean time to death) of non-survivors (PTZ-induced seizures; rats which died within 2 h): 1.6 fold

CCN(CC)C(=S)SSC(=S)N(CC)CC [Disulfiram]
zinc ionophore activity [1]: Disulfiram ✓✓

[Zn+2] [Zn^2+]
apoptosis of H2O2-treated cells (PC12 cells): did not block apoptosis

[Na+].[O-][n+]1ccccc1[S-] [sodium-pyrithione]
apoptosis in irradiated HUVEC ([2]; 1000 Rads gamma-irradiation, 8 hours): not effective | apoptosis caused in control cultures ([2]; non-irradiated HUVEC): No apoptosis
